Test results taken from ChEMBL document CHEMBL1201862, “PubChem BioAssay data set” (2004).
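Five compound concentrations were applied to cells in 96-well plates for 48 hours; endpoints were derived by simple linear interpolation of the resulting dose-response curve. GI50 is the concentration that inhibits growth by half.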 Active and inactive are the calls of the source. Rule as the data show it: active = GI50 up to about 1.1 µM and inactive = higher.

Tests used:
Test in all cases: NCI tumour cell line growth inhibition, 48 h
HOP-18 = system: HOP-18
OVCAR-3 = system: OVCAR-3
A498 = system: A498
NCI-H226 = system: NCI-H226
DLD-1 = system: DLD-1
HOP-92 = system: HOP-92
KM12 = system: KM12
UO-31 = system: UO-31
SR = system: SR
OVCAR-8 = system: OVCAR-8
OVCAR-4 = system: OVCAR-4
SNB-78 = system: SNB-78
EKVX = system: EKVX
NCI-H460 = system: NCI-H460
SF-539 = system: SF-539
TK-10 = system: TK-10
M14 = system: M14
HCT-15 = system: HCT-15
SN12C = system: SN12C
HCC 2998 = system: HCC 2998
Malme-3M = system: Malme-3M
HT-29 = system: HT-29
MOLT-4 = system: MOLT-4
SF-295 = system: SF-295
SK-OV-3 = system: SK-OV-3
LOX IMVI = system: LOX IMVI
SK-MEL-5 = system: SK-MEL-5
SNB-19 = system: SNB-19
DMS-273 = system: DMS-273
COLO 205 = system: COLO 205
CAKI-1 = system: CAKI-1
XF498 = system: XF498
NCI-H23 = system: NCI-H23
SNB-75 = system: SNB-75
HCT-116 = system: HCT-116
LXFL 529 = system: LXFL 529
DMS-114 = system: DMS-114
RPMI-8226 = system: RPMI-8226
RXF 393 = system: RXF 393
A549 = system: A549
RXF 631 = system: RXF 631
IGROV-1 = system: IGROV-1
SW-620 = system: SW-620
ACHN = system: ACHN
SF-268 = system: SF-268
NCI-H522 = system: NCI-H522
K562 = system: K562
UACC-257 = system: UACC-257
SK-MEL-28 = system: SK-MEL-28
U-251 = system: U-251
KM-20L2 = system: KM-20L2
OVCAR-5 = system: OVCAR-5
CCRF-CEM = system: CCRF-CEM
HL-60 = system: HL-60
UACC-62 = system: UACC-62
SK-MEL-2 = system: SK-MEL-2
M19-MEL = system: M19-MEL
786-0 = system: 786-0
HOP-62 = system: HOP-62

## O=c1/c(=C/c2ccccc2[N+](=O)[O-])sc2nc3ccccc3n12
HOP-18
  GI50: 44.6 µM (inactive)
OVCAR-3
  GI50: > 31.6 µM (inactive)
A498
  GI50: 17.3 µM (inactive)
NCI-H226
  GI50: 22.9 µM (inactive)
DLD-1
  GI50: 27.7 µM (inactive)
HOP-92
  GI50: 32.1 µM (inactive)
KM12
  GI50: 34.7 µM (inactive)
UO-31
  GI50: > 46.5 µM (inactive)
SR
  GI50: 12.2 µM (inactive)
OVCAR-8
  GI50: 38.9 µM (inactive)
OVCAR-4
  GI50: > 46.5 µM (inactive)
SNB-78
  GI50: 23.1 µM (inactive)
EKVX
  GI50: > 100 µM (inactive)
NCI-H460
  GI50: 37.8 µM (inactive)
SF-539
  GI50: 19.5 µM (inactive)
TK-10
  GI50: > 46.5 µM (inactive)
M14
  GI50: 39.7 µM (inactive)
HCT-15
  GI50: 17 µM
SN12C
  GI50: 44.1 µM (inactive)
HCC 2998
  GI50: 30.8 µM (inactive)
Malme-3M
  GI50: 42.2 µM (inactive)
HT-29
  GI50: > 46.5 µM (inactive)
MOLT-4
  GI50: > 46.1 µM (inactive)
SF-295
  GI50: 18.8 µM (inactive)
SK-OV-3
  GI50: > 31.6 µM (inactive)
LOX IMVI
  GI50: 17.1 µM (inactive)
SK-MEL-5
  GI50: 41.6 µM (inactive)
SNB-19
  GI50: 21.9 µM (inactive)
DMS-273
  GI50: 20 µM (inactive)
COLO 205
  GI50: 26.6 µM (inactive)
CAKI-1
  GI50: > 73.1 µM (inactive)
XF498
  GI50: 16 µM (inactive)
NCI-H23
  GI50: 28.6 µM (inactive)
SNB-75
  GI50: 24.5 µM (inactive)
HCT-116
  GI50: 21.7 µM (inactive)
LXFL 529
  GI50: 33.4 µM (inactive)
DMS-114
  GI50: 16.3 µM (inactive)
RPMI-8226
  GI50: 12.6 µM (inactive)
RXF 393
  GI50: 28.3 µM (inactive)
A549
  GI50: 30.8 µM (inactive)
RXF 631
  GI50: 17.5 µM (inactive)
IGROV-1
  GI50: 30.5 µM (inactive)
SW-620
  GI50: 24.1 µM (inactive)
ACHN
  GI50: > 46.5 µM (inactive)
SF-268
  GI50: 29.9 µM (inactive)
NCI-H522
  GI50: 35.4 µM (inactive)
K562
  GI50: 40.8 µM (inactive)
UACC-257
  GI50: 34.8 µM (inactive)
SK-MEL-28
  GI50: > 46.5 µM (inactive)
U-251
  GI50: 19.9 µM (inactive)
KM-20L2
  GI50: > 100 µM (inactive)
OVCAR-5
  GI50: > 46.5 µM (inactive)
CCRF-CEM
  GI50: 13 µM (inactive)
HL-60
  GI50: 41.1 µM (inactive)
UACC-62
  GI50: 64.7 µM (inactive)
SK-MEL-2
  GI50: 20.4 µM (inactive)
M19-MEL
  GI50: 28.6 µM (inactive)
786-0
  GI50: 24.5 µM (inactive)
HOP-62
  GI50: 42.4 µM (inactive)
